Values quoted from earlier work, collected in patent US20230201166A1, “METHODS FOR TREATING CANCER BY INHIBITING CARM1” (DANA-FARBER CANCER INSTITUTE, INC., priority 2020, published 2023).
Read-outs that look alike come from different tables or passages of the source.

Key:
CARM1 [1] = target: T1, CARM1 (Homo sapiens, UniProt Q86X55); conditions: read-out: CARM1 ICW IC50; cited from earlier work
T1 sequence (Q86X55 1-608): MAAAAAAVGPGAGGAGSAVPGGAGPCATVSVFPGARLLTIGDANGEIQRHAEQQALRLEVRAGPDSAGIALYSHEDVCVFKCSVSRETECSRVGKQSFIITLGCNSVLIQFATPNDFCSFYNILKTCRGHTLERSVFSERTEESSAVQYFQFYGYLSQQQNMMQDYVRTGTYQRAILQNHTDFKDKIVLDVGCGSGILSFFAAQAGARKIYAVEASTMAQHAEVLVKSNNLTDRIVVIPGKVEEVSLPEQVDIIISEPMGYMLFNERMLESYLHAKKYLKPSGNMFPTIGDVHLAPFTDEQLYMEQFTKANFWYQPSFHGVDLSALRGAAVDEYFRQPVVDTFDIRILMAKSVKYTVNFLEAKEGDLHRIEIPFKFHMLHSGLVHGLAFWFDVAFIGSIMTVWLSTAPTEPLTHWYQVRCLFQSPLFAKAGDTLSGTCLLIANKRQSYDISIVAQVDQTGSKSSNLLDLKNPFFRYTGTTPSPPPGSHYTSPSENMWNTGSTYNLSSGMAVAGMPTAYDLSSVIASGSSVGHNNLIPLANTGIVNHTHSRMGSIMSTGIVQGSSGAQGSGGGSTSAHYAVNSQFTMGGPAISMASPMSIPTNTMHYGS

CARM1 [2] = target: T1, CARM1; conditions: read-out: CARM1 Biochemical IC50; cited from earlier work

SMILES | IC50 (CARM1 [1]) | IC50 (CARM1 [2])
Cn1cnc2ccc(-c3cccc(OCC(O)CN)c3)nc21 (centres unmarked) [compound 1] | > 20 µM | 
CNC[C@@H](O)COc1ccc(Cl)c(-c2nc(-c3c(C)noc3C)c(C)c(N3Cc4cnc(N5CCC5)nc4C3)n2)c1 [EPZ025654] | 0.011 µM | 
CC(C)n1ncc2c(N3CCOCC3)cc(-c3cccc(OCC(O)CN)c3)nc21 (centres unmarked) [compound 2] | 19 µM | 
CNC[C@@H](O)COc1cc(-c2nc(-c3c(C)noc3C)c(C)c(N3CC4(CCN(C(=O)OC)CC4)C3)n2)ccc1Cl [compound 3] | > 6.5 µM | > 1 µM
